# In patent US20180362491A1, “STEREOISOMER OF FLOCOUMAFEN, COMPOSITION AND RODENTICIDE BAIT COMPRISING SAME, AND METHOD FOR CONTROLLING TARGET RODENT PESTS” (priority 2015, published 2018):
# Assay type: in vivo, rat
# Settings: male and female rats, D+1 to D+7 after oral tube-feeding
# Description: The configurational stereoisomers of flocoumafen are separated by high-pressure liquid chromatography using a LUX® Cellulose-4 chiral column (00F-4490-B0, Phenomenex, Le Pecq, France) as stationary phase and a mixture formed from acetonitrile (A) and water comprising 0.1% by volume of formic acid (B), with an AB volume ratio of 92/8, as mobile phase with a flow rate of the liquid mobile phase in the chromatography column of 0.25 mL/minute. 1 μL of extract comprising flocoumafen at a concentration of 1 μg/mL of acetonitrile is injected. Detection is performed by tandem mass spectrometry (MS/MS) in negative electrospray ionization (ESI) mode. The temperature of the nebulizer gas is 350° C. and its flow rate is 8 L/minute. The pressure of the nebulizer gas is brought to 2700 hPa. In particular, the MRM (“Multiple Reaction Monitoring”) transitions m/z 541.1→382.1 and m/z 541.1→161, corresponding to the flocoumafen signal, are detected.
# About 0.525 g(±0.025 g) of rat liver is weighed out accurately and placed in a 50 mL polypropylene tube. 10 mL of acetone are added and the suspension is homogenized using an UltraTurrax® homogenizer/disperser for a time of about 30 seconds. The homogenizer/disperser shaft is rinsed with hot water and then twice with 20 mL of acetone in a polypropylene tube. […]
structure (smiles),measurement,value
"O=c1oc2ccccc2c(O)c1C1CC(c2ccc(OCc3ccc(C(F)(F)F)cc3)cc2)Cc2ccccc21 (single isomer, unassigned) [Enantiomer E3, flocoumafen]","Persistence in the liver (in words, relative to enantiomer E4 and flocoumafen)","lower than the persistence of enantiomer E4 of said diastereoisomer D1,4 and lower than the persistence of flocoumafen"
